Results on 14 compounds are retold here after US12649750B2, “Macrocyclic compounds, compositions, and methods of using thereof” (Sionna Therapeutics Inc., priority 2022, dated 2026).

The target in the assay is T1, NBD1 (Homo sapiens, UniProt P13569).
T1 construct: Purified recombinant NBD1 was produced using previously described methods; made in house
Kind of assay: Aggregation analysis using differential static light scattering (DSLS), thermal stability of NBD1 (ΔTagg). The class given is binding. The following applies: ΔTagg versus DMSO control, NBD1 0.2 mg/ml. In outline: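 Differential static light scattering read from 25° C. to 70° C. every 0.5° C., ramp 1° C./min, on recombinant NBD1 (0.2 mg/ml; Tris/NaCl/MgCl2 buffer with 2 mM ATP, 2 mM DTT, pH 7.6, 1% glycerol) plus compound. Reported ΔTagg subtracts averaged DMSO Tagg from inflection-point Tagg; categories A ≤5, B >5-10, C >10-25° C.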

T1 sequence (P13569 423-646 limits assumed): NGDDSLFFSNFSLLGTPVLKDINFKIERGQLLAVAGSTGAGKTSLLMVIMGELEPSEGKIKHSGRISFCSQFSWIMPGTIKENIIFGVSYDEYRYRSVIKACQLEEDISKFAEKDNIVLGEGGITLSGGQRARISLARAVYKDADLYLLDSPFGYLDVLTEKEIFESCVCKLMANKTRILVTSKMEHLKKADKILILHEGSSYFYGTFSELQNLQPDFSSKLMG

Regarding `C[C@H](Cc1cccc([C@@]2(C)CCCC(C)(C)CS(=O)(=O)CCc3c(c(F)cc4[nH]ccc34)S(=O)(=O)c3ccnc(c3)-c3nc2nn3C)c1)C(=O)O` [Compound 349, (2R)-3-[3-[(6R)-22-Fluoro-3,6,10,10-tetramethyl-12,12,24,24-tetraoxo-12λ6,24λ6-dithia-3,4,19,28,30-pentazapentacyclo[23.3.1.12,5.015,23.016,20]triaconta-1(29),2(30),4,15,17,20,22,25,27-nonaen-6-yl]phenyl]-2-methyl-propanoic Acid], the “DSLS 3D (100 μM ΔT)” value is “B (a value above 5 °C and less than or equal to 10 °C is marked “B”)”.

On to `Cn1nc2nc1-c1cc(ccn1)S(=O)(=O)c1c(F)c(F)c3[nH]ccc3c1CCS(=O)(=O)CC(C)(C)CCC[C@]2(C)c1cccc(CC(C)(C)C(=O)O)c1` [Compound 352, 3-[3-[(6R)-21,22-Difluoro-3,6,10,10-tetramethyl-12,12,24,24-tetraoxo-12λ6,24λ6-dithia-3,4,19,28,30-pentazapentacyclo[23.3.1.12,5.015,23.016,20]triaconta-1(29),2(30),4,15,17,20,22,25,27-nonaen-6-yl]phenyl]-2,2-dimethyl-propanoic Acid], for which the “DSLS 3D (100 μM ΔT)” value is “A (an ΔTagg value less than or equal to 5 °C is marked “A”)”. For the compound `COCC(Cc1cccc([C@@]2(C)CCCC(C)(C)CS(=O)(=O)CCc3c(c(F)c(F)c4[nH]ccc34)[S+]([O-])c3ccc(F)c(c3)-c3nc2nn3C)c1)C(=O)O` (single isomer, unassigned) [Compound 372], the “DSLS 3D (100 μM ΔT)” value was “B (a value above 5 °C and less than or equal to 10 °C is marked “B”)”. Then `COCC(Cc1cccc([C@@]2(C)CCCC(C)(C)CS(=O)(=O)CCc3c(c(F)c(F)c4[nH]ccc34)[S+]([O-])c3ccc(F)c(c3)-c3nc2nn3C)c1)C(=O)O` (single isomer, unassigned) [Compound 371], with “B (a value above 5 °C and less than or equal to 10 °C is marked “B”)”. Then `C[C@H](Cc1cccc([C@@]2(C)CCCC(C)(C)CS(=O)(=O)CC(N)c3c(c(F)c(F)c4[nH]ccc34)Oc3ccc(F)c(c3)-c3nc2nn3C)c1)C(N)=O` (single isomer, unassigned) [Compound 385B], with “A (an ΔTagg value less than or equal to 5 °C is marked “A”)”; and `CCOC(=O)[C@@H](C)Cc1cccc(C2CCCC(C)(C)CS(=O)(=O)CCc3c(c(F)cc4[nH]ccc34)C(=O)c3cccc(c3)-c3ccn2n3)c1` (stereo partly drawn) [Compound 161, Ethyl (2S)-3-[3-(22-fluoro-10,10-dimethyl-12,12,24-trioxo-12λ6-thia-5,19,30-triazapentacyclo[23.3.1.12,5.015,23.016,20]triaconta-1(29),2(30),3,15,17,20,22,25,27-nonaen-6-yl)phenyl]-2-methyl-propanoate], with “A (an ΔTagg value less than or equal to 5 °C is marked “A”)”; and `Cn1nc2nc1-c1cc(ccc1F)Oc1c(F)cc3[nH]ccc3c1CCS(=O)(=O)CC(C)(C)COCC2(C)c1cccc(CCC(=O)O)c1` (single isomer, unassigned) [Compound 89B, 3-[3-(22,28-difluoro-3,6,10,10-tetramethyl-12,12-dioxo-8,24-dioxa-12λ6-thia-3,4,19,30-tetrazapentacyclo[23.3.1.12,5.015,23.016,20]triaconta-1(29),2(30),4,15,17,20,22,25,27-nonaen-6-yl)phenyl]propanoic Acid], with “A (an ΔTagg value less than or equal to 5 °C is marked “A”)”. Then `CN1CCS(=O)(=O)CCC(C)(c2cccc(CCC(=O)O)c2)c2cnc([nH]2)-c2cc(ccc2F)Oc2c(F)cc3[nH]ccc3c2CCC1=O` (centres unmarked) [Compound 39, 3-[3-(23,29-Difluoro-6,12-dimethyl-9,9,13-trioxo-25-oxa-9λ6-thia-3,12,20,31-tetrazapentacyclo[24.3.1.12,5.016,24.017,21]hentriaconta-1(30),2,4,16,18,21,23,26,28-nonaen-6-yl)phenyl]propanoic Acid], with “B (a value above 5 °C and less than or equal to 10 °C is marked “B”)”; and `C[C@H](Cc1cccc([C@@]2(C)CCCC(C)(C)CS(=O)(=O)CCc3c(c(F)cc4[nH]ccc34)[S+]([O-])c3cc(c(F)cc3N)-c3nc2nn3C)c1)C(=O)O` (single isomer, unassigned) [Compound 379A], with “A (an ΔTagg value less than or equal to 5 °C is marked “A”)”; and `C[C@H](Cc1cccc([C@@]2(C)CCCC(C)(C)CS(=O)(=O)CCc3c(c(F)c(F)c4[nH]ccc34)Cc3ccnc(c3)-c3nc2nn3C)c1)C(=O)O` [Compound 305, (2R)-3-[3-[(6R)-21,22-Difluoro-3,6,10,10-tetramethyl-12,12-dioxo-12λ6-thia-3,4,19,28,30-pentazapentacyclo[23.3.1.12,5.015,23.016,20]triaconta-1(29),2(30),4,15,17,20,22,25,27-nonaen-6-yl]phenyl]-2-methyl-propanoic acid], with “B (a value above 5 °C and less than or equal to 10 °C is marked “B”)”. In the case of `Cn1nc2nc1-c1cc(ccn1)Sc1c(F)c(F)c3[nH]ccc3c1CCS(=O)(=O)CC(C)(C)CCC[C@]2(C)c1cccc(C[C@H](O)CO)c1` [Compound 340, (2S)-3-[3-[(6R)-21,22-Difluoro-3,6,10,10-tetramethyl-12,12-dioxo-12λ6,24-dithia-3,4,19,28,30-pentazapentacyclo[23.3.1.12,5.015,23.016,20]triaconta-1(29),2(30),4,15,17,20,22,25,27-nonaen-6-yl]phenyl]propane-1,2-diol], the “DSLS 3D (100 μM ΔT)” value is “B (a value above 5 °C and less than or equal to 10 °C is marked “B”)”. Then `C[C@H](Cc1cccc([C@@]2(C)CCCC(C)(C)CS(=O)(=O)CCc3c(ncc4[nH]ccc34)Oc3ccc(F)c(c3)-c3nc2nn3C)c1)C(=O)O` [Compound 356, (2R)-3-[3-[(6R)-28-Fluoro-3,6,10,10-tetramethyl-12,12-dioxo-24-oxa-12λ6-thia-3,4,19,22,30-pentazapentacyclo[23.3.1.12,5.015,23.016,20]triaconta-1(29),2(30),4,15,17,20,22,25,27-nonaen-6-yl]phenyl]-2-methyl-propanoic acid], with “A (an ΔTagg value less than or equal to 5 °C is marked “A”)”. Then `C[C@@H](Cc1cccc([C@@]2(C)CCCC(C)(C)CS(=O)(=O)CCc3c(c(F)c(F)c4[nH]ccc34)Cc3ccnc(c3)-c3nc2nn3C)c1)C(=O)O` [Compound 304, (2S)-3-[3-[(6R)-21,22-Difluoro-3,6,10,10-tetramethyl-12,12-dioxo-12λ6-thia-3,4,19,28,30-pentazapentacyclo[23.3.1.12,5.015,23.016,20]triaconta-1(29),2(30),4,15,17,20,22,25,27-nonaen-6-yl]phenyl]-2-methyl-propanoic Acid], with “B (a value above 5 °C and less than or equal to 10 °C is marked “B”)”; and `Cn1nc2nc1-c1cc(ccc1F)S(=O)(=O)c1c(F)cc3[nH]cc(Cl)c3c1CCS(=O)(=O)CC(C)(C)CCC[C@]2(C)c1cccc(CC(C)(C)C(=O)O)c1` [Compound 348B, 3-[3-[(6R)-17-Chloro-22,28-difluoro-3,6,10,10-tetramethyl-12,12,24,24-tetraoxo-12λ6,24λ6-dithia-3,4,19,30-tetrazapentacyclo[23.3.1.12,5.015,23.016,20]triaconta-1(29),2(30),4,15,17,20,22,25,27-nonaen-6-yl]phenyl]-2,2-dimethyl-propanoic Acid], with “A (an ΔTagg value less than or equal to 5 °C is marked “A”)”.
